Experimental data published in patent publication US20070293543A1, “THRESHOLD BLOOD OMEPRAZOLE CONCENTRATION IS 50 NG/ML FOR THE MAINTENANCE OF INTRAGASTRIC pH OF AT LEAST 4.0 AFTER ORAL DOSING WITH CMA-OMEPRAZOLE, AGN 201904-Z” (priority 2006, published 2007).

System: intragastric pH
Test: 24-hr intragastric pH monitoring (pharmacodynamics)
Format: in vivo, healthy male subjects
Settings: oral once-daily dosing; for % time intragastric pH ≧4.0: 24-hr monitoring, p<0.0001 vs esomeprazole, dose level and day not stated
Description: Methods: Forty healthy male subjects received 240, 480, and 640 mg AGN 201904-Z or 40 mg esomeprazole orally once-daily for 5 days in a open-label, randomized, 4-way cross-over study. These doses were estimated to deliver molar equivalent omeprazole doses of 53%, 107%, and 143% of the esomeprazole dose, respectively. Pharmacokinetic (PK) blood samples were collected at 8 timepoints following the 1st and 5th dose of each treatment. Pharmacodynamics (PD) were evaluated via 24-hr intragastric ph monitoring before treatment and after the 1st and 5th doses of each treatment. Empirical PK/PD models were constructed for AGN 201904-Z data by regressing the % time that intragastric pH ≧4.0 during a 24-hr dosing period against the duration of time that blood omeprazole concentrations were greater than 8 different concentrations over the same 24-hr period. The possible threshold concentrations evaluated ranged from 10 to 400 ng/mL. The concentration that provided the best-fit was designated the threshold concentration. The best-fit concentration and model was chosen based on the WSSR, R^2, visual inspection, and AIC value. Results: Among the possible omeprazole threshold concentrations evaluated, 50 ng/mL was the best-fit concentration value in all of the models evaluated.

**Q.** What does the source list for `COc1ccc2c(c1)nc([S+]([O-])Cc1ncc(C)c(OC)c1C)n2S(=O)(=O)c1ccc(OCC(=O)[O-])cc1.[Na+]` (stereo not drawn) [AGN 201904-Z, sodium {4-[5-Methoxy-2-(4-methoxy-3,5-dimethyl-pyridin-2-ylmethanesulfinyl)-benzoimidazole-1-sulfonyl]-phenoxy}-acetate]?
**A.** % time intragastric pH ≧4.0: 80.1 % of 24-hr; maintaining 24-hour intragastric pH ≧4.0, comparison with esomeprazole (healthy male subjects): more effective than esomeprazole

**Q.** With `COc1ccc2nc([S@@+]([O-])Cc3ncc(C)c(OC)c3C)[nH]c2c1` [esomeprazole, reference compound] as the compound, how does the “% time intragastric pH ≧4.0” value read?
**A.** 68.4 % of 24-hr
